Blank lines part the entries; values can stand above or below the compound they belong to. Active and inactive are the calls of the source.
Columns and labels:
Melanocortin receptor 4 = Melanocortin receptor 4 (Homo sapiens, UniProt P32245); assay: MC4R antagonist potency on cAMP, dose response, cell-based, TR-FRET, biased antagonists (AID 602298); format: functional;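 further: antagonist potency against agonist-stimulated cAMP production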
[1] = nonselective inhibitors of cellular cAMP signaling, dose response, counter-screen for MC4R biased antagonist project, cell-based, TR-FRET cAMP detection (AID 602305); format: functional;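 further: U2OS cells stimulated with forskolin near its EC80 as the cAMP inducer; potency is for inhibition of forskolin-stimulated cAMP signaling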
[2] = target: Glyceraldehyde-3-phosphate dehydrogenase (Homo sapiens, UniProt P04406)
[3] = target: Potassium voltage-gated channel subfamily KQT member 2 (Rattus norvegicus, UniProt O88943); assay: KCNQ2 potassium channel inhibitors, dose response, cell-based, automated electrophysiology, set II, rat KCNQ2 (AID 588637); format: functional
[4] = target: Induced myeloid leukemia cell differentiation protein Mcl-1 (Homo sapiens, UniProt Q07820); format: functional
[5] = target: T1, Mannose-6-phosphate isomerase (Homo sapiens, UniProt P34949); assay: human PMI inhibitors, high substrate, primary screen, biochemical, fluorescence intensity, high mannose 6-phosphate (AID 1220)
T1 sequence (P34949 whole entry): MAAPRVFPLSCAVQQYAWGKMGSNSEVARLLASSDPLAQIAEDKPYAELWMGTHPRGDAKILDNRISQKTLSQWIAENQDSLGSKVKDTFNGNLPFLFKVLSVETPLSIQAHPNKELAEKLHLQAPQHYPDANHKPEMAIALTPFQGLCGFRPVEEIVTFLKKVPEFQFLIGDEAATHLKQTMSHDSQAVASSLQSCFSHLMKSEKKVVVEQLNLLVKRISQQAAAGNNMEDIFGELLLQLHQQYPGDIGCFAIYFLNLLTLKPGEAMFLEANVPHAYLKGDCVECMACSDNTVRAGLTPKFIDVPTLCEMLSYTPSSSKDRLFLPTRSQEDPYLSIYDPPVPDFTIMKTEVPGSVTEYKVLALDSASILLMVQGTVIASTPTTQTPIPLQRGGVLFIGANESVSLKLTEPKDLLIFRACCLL

[6] = target: Hepatocyte nuclear factor 4-alpha (Homo sapiens, UniProt P41235); format: functional, cell-based;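 further: biochemical luminescence-based dose-response counterscreen measuring inhibition of HNF4 dimerization, run alongside a screen for blockers of ABHD5–perilipin-5 interaction; split luciferase complementation of HNF4 fusion proteins in cell lysate measuring dimerization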
[7] = target: T2, Apoptotic protease-activating factor 1 (Homo sapiens, UniProt O14727); assay: SAR analysis of small molecule Activators of Apaf-1 in a Fluorescent assay.; format: functional; details: read-out: EC50_Mean;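 further: caspase-3 cleavage of fluorogenic Rh110 DEVD substrate downstream of apoptosome activation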
T2 sequence (O14727 whole entry): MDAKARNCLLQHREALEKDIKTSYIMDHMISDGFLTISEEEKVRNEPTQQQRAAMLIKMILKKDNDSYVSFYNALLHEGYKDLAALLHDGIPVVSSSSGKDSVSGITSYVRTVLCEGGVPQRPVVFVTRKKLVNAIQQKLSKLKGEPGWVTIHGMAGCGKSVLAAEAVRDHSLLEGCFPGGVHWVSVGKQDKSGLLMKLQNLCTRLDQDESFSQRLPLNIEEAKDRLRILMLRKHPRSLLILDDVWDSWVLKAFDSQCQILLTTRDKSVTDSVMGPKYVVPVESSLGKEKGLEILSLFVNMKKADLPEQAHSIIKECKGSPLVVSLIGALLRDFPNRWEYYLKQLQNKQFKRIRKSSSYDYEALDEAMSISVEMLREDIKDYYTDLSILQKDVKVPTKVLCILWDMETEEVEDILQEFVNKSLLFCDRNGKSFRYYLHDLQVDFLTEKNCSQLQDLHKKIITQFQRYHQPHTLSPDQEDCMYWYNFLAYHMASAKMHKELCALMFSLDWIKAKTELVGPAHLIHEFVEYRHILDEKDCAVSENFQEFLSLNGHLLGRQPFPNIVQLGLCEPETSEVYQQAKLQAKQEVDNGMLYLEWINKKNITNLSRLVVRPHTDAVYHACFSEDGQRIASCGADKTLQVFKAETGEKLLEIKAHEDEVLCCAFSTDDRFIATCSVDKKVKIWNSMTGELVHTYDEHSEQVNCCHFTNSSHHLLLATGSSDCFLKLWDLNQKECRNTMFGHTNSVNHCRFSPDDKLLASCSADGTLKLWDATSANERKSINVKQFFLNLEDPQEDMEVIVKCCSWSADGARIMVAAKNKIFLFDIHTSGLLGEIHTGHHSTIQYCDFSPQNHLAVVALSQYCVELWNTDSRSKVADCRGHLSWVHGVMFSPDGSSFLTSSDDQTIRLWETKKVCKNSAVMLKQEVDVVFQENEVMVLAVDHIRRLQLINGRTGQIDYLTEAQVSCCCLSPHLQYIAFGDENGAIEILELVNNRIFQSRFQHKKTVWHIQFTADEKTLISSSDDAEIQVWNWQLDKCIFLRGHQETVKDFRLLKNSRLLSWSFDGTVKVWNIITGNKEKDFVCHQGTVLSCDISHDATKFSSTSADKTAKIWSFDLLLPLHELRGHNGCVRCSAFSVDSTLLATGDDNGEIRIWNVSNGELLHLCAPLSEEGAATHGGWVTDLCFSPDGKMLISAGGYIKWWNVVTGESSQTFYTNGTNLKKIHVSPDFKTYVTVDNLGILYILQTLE

[8] = target: Nuclear receptor subfamily 5 group A member 2 (Homo sapiens, UniProt O00482); format: functional, cell-based;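 further: HEK293T cells transfected with LRH-1 and a StAR promoter luciferase reporter; potency for inhibitors that lower LRH-1 driven reporter light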
Steroidogenic factor 1 = Steroidogenic factor 1 (Homo sapiens, UniProt Q13285); assay: Counterscreen for inverse agonists of the liver receptor homolog-1 (LRH-1; NR5A2): Luminescence-based cell-based high throughput dose response assay to identify inverse agonists of the Steroidogenic Factor 1 Nuclear Receptor (SF1; NR5A1).; format: functional
[9] = StAR promoter reporter inhibition counter-screen, dose response, counter-screen for LRH-1 inverse agonist project, cell-based, luminescence, luciferase reporter (AID 651969); format: functional
[10] = growth suppression of PTEN-null colon cells, dose response, cell-based, HCT116 PTEN knockout (AID 1047); format: functional;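 further: HCT116 colon tumor cells with PTEN knocked out; cells exposed to compound for 60 hours before readout; potency for loss of cell viability measured by luminescence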
[11] = growth suppression of beta-catenin-knockout colon cells, dose response, cell-based, HCT116, human colon tumor (AID 1045); format: functional;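 further: HCT116 colon tumor cells with beta catenin knocked out; cells exposed to compound for 60 hours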
Interleukin-8 [12] = target: T3, Interleukin-8 (Homo sapiens, UniProt P10145); assay: Dose Response confirmation of uHTS small molecule hits for cystic fibrosis induced NFkb Inhibitors in a TNFa-induced IL8 counterscreen.; format: functional; details: read-out: IC50_Mean
Interleukin-8 [13] = target: T3, Interleukin-8; assay: Dose Response confirmation of uHTS small molecule hits for cystic fibrosis induced NFkb Inhibitors in a PAF-induced IL8 counterscreen.; format: functional; details: read-out: IC50_Mean
[14] = target: SWI/SNF-related matrix-associated actin-dependent regulator of chromatin subfamily A member 2 (Homo sapiens, UniProt P51531); assay: Luminescence-based cell-based high throughput dose response assay to identify activators of the function of SWI/SNF related, matrix associated, actin dependent regulator of chromatin, subfamily a, member 2 (SMARCA2, BRM).; format: functional
[15] = Counterscreen for activators of the function of SWI/SNF related, matrix associated, actin dependent regulator of chromatin, subfamily a, member 2 (SMARCA2, BRM): Luminescence-based cell-based high throughput dose response assay to identify non-selective compounds using the VP16 reporter assay.; format: functional
Paired box protein Pax-8 = Paired box protein Pax-8 (Homo sapiens, UniProt Q06710); assay: inhibitors of PAX8-driven TPO luciferase reporter, dose response, RMG-I cells, cherry-pick (AID 687027); format: functional, cell-based;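 further: luciferase reporter driven by Pax8 target thyroperoxidase promoter measured by SteadyGlo luminescence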
[16] = target: Tyrosine-protein kinase JAK2 (Homo sapiens, UniProt O60674); format: functional;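 further: JAK2 tested as one member of a kinase panel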
[17] = target: Tyrosine-protein kinase JAK3 (Homo sapiens, UniProt P52333); format: functional
Tyrosine-protein kinase JAK3, sequence (P52333 whole entry): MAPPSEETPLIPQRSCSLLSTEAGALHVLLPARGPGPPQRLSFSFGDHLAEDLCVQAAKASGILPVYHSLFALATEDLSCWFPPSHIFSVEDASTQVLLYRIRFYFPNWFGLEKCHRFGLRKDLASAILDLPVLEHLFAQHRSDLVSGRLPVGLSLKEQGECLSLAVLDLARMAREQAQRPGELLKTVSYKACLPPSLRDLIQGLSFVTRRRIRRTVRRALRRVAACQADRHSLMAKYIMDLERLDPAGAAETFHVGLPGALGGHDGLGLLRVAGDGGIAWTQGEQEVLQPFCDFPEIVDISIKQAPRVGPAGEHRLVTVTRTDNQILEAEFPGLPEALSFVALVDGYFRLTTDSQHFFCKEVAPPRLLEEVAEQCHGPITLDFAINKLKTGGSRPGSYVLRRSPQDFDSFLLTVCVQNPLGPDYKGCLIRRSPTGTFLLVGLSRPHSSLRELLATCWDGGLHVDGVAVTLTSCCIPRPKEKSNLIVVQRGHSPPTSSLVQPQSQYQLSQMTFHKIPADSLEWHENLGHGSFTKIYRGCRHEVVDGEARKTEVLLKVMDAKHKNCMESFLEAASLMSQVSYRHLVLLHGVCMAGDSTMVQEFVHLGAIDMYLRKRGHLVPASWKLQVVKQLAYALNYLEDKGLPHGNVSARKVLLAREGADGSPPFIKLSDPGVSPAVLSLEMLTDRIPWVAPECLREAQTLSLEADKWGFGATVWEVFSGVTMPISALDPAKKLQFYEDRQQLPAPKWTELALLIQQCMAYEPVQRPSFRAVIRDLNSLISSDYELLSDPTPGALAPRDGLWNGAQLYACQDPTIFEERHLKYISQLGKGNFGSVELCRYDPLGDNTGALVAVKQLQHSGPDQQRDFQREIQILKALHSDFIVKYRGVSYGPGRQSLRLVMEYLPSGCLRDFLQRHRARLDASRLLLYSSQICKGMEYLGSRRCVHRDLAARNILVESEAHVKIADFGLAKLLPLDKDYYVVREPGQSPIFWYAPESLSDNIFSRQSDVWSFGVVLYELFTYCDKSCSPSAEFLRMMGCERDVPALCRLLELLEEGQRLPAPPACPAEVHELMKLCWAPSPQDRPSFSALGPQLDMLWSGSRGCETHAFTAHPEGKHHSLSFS

T3 sequence (P10145 whole entry): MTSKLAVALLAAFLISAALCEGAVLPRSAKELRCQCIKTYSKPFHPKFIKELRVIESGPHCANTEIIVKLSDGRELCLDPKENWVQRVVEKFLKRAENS
Melanocortin receptor 4, sequence (P32245 whole entry): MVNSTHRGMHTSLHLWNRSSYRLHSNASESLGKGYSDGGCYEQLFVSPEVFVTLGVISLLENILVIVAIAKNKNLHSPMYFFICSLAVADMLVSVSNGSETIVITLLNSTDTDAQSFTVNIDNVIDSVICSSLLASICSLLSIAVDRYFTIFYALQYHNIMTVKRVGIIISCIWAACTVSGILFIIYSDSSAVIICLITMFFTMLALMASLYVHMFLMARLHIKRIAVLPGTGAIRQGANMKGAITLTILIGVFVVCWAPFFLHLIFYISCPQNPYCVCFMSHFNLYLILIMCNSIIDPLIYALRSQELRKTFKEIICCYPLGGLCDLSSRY
Paired box protein Pax-8, sequence (Q06710 whole entry): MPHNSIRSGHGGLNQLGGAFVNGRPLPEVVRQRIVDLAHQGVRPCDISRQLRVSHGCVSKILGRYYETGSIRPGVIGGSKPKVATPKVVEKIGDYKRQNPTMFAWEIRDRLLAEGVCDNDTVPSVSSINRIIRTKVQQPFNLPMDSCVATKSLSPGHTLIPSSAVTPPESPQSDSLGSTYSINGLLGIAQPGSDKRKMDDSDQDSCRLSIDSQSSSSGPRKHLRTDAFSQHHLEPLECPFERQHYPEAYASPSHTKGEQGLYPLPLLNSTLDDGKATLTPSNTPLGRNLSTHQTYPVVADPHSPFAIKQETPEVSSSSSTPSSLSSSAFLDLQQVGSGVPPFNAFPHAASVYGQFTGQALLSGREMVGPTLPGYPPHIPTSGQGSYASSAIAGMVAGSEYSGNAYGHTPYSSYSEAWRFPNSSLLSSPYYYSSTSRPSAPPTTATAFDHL
Induced myeloid leukemia cell differentiation protein Mcl-1, sequence (Q07820 whole entry): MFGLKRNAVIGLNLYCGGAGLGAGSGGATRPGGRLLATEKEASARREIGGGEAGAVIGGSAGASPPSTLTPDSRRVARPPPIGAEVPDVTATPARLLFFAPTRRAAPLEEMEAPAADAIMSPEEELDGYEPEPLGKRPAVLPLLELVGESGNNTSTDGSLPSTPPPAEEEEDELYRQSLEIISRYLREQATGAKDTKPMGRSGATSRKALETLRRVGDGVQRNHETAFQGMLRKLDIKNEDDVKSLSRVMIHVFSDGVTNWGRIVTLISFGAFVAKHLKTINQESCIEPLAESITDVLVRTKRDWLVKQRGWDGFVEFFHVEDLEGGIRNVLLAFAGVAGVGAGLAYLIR
Steroidogenic factor 1, sequence (Q13285 whole entry): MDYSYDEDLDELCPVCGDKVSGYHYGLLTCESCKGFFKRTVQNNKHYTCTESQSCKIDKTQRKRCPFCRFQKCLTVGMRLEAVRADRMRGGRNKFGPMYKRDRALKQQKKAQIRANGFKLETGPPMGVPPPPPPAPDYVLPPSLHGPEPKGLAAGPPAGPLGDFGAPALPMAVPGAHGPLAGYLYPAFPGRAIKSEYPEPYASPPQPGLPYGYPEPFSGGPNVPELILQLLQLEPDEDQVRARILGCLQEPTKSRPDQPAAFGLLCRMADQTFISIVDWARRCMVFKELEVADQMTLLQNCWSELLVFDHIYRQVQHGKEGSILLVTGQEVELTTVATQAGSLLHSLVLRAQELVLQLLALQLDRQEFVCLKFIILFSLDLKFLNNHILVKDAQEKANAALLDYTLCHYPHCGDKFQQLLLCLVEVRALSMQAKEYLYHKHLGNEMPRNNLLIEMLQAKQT
Glyceraldehyde-3-phosphate dehydrogenase, sequence (P04406 whole entry): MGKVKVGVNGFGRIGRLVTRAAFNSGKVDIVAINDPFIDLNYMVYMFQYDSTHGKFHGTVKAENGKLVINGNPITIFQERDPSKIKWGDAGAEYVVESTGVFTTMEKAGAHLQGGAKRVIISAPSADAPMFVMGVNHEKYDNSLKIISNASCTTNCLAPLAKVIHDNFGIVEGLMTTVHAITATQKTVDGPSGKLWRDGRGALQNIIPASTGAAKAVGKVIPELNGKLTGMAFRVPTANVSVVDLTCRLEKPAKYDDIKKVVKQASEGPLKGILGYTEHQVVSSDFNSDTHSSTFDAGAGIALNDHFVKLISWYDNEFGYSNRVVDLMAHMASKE
SWI/SNF-related matrix-associated actin-dependent regulator of chromatin subfamily A member 2, sequence (P51531 whole entry): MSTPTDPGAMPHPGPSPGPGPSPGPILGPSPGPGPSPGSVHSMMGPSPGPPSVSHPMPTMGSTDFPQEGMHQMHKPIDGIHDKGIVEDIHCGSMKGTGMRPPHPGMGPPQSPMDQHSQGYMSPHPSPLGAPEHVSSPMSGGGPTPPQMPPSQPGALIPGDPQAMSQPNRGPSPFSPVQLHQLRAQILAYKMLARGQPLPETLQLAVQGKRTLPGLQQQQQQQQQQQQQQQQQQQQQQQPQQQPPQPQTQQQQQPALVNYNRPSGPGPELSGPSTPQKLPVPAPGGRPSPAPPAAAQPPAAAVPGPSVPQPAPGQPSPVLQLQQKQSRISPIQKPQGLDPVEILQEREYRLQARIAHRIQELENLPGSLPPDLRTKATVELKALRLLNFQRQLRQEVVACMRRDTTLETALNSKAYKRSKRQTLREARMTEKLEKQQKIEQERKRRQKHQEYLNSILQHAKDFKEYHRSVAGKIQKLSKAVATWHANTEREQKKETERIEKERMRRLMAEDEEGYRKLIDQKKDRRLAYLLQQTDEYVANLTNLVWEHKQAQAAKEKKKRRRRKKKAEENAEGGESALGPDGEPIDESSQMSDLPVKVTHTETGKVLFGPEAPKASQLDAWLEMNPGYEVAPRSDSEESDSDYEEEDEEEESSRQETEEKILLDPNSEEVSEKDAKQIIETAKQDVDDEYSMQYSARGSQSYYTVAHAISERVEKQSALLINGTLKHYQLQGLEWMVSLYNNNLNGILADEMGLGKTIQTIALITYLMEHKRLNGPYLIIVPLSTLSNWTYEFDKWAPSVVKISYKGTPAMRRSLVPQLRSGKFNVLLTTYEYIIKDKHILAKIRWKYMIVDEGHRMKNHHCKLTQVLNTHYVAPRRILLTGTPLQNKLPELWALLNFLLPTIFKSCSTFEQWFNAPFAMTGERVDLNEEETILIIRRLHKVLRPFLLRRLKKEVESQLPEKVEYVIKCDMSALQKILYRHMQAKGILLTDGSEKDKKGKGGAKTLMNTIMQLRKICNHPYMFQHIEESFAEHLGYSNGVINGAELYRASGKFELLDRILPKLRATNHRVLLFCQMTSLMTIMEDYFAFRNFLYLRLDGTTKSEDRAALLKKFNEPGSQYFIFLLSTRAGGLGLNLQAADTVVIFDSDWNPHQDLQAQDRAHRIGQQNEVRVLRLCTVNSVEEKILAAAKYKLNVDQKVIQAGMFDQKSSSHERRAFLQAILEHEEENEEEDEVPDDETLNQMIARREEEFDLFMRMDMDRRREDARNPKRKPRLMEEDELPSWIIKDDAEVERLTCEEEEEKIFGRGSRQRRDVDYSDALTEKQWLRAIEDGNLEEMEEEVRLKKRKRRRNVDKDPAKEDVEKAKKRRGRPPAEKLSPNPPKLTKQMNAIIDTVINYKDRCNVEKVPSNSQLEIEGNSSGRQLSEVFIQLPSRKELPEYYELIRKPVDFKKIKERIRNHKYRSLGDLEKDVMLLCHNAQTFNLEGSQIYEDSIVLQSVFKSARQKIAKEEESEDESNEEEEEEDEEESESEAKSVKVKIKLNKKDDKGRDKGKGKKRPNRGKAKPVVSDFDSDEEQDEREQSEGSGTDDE

SMILES: CCOC(=O)N1CCN(CCC(=O)c2ccc(OC)cc2)CC1
IC50 (Melanocortin receptor 4): > 64.5 µM (inactive)
IC50 [1]: > 64.5 µM (inactive)

IC50 [2]: > 100 µM (not active)
IC50 [3]: 1.99 µM (active)
SMILES: Cc1cc(C)c(/N=C2\CCCN2Cc2ccccc2)c(C#N)c1

IC50 [4]: 1.13 µM (active)
IC50 [5]: > 50 µM (not active)
IC50 [6]: 2.31 µM (active)
SMILES: CCOC(=O)c1c(C)oc2c1c(CN1CCN(CCO)CC1)c(O)c1ccccc12

EC50 [7]: > 100 µM (inactive)
SMILES: COc1ccccc1NC(=O)CCS(=O)(=O)c1ccc2c(c1)NC(=O)C(C)S2 (configuration not stated)

SMILES: CCc1cc(=O)oc2c(C)c(OCC(=O)NCCN3CCOCC3)ccc12
IC50 [8]: 35.9 µM (inactive)
IC50 (Steroidogenic factor 1): 9.97 µM (active)
IC50 [9]: 35.9 µM (inactive)

SMILES: CCc1ccc(OCC(=O)NC(N=C(S)Nc2ccccc2OC)C(Cl)(Cl)Cl)cc1 (configuration not stated)
EC50 [10]: 9.76 µM (active)
EC50 [11]: 9.32 µM (active)
IC50 (Melanocortin receptor 4): > 64.6 µM (inactive)
IC50 [1]: > 64.6 µM (inactive)

SMILES: C=C1C(=O)[C@]23C[C@H]1CC[C@H]2[C@]1(C)[C@@H](OC(C)=O)CC[C@@](C)(C(=O)O)[C@H]1C[C@@H]3O
IC50 (Interleukin-8 [12]): > 79 µM (inactive)
IC50 (Interleukin-8 [13]): 0.293 µM (active)
EC50 [14]: > 91.3 µM (inactive)
EC50 [15]: > 91.3 µM (inactive)
AC50 (Paired box protein Pax-8): 4.07 µM (active)

Ki [16]: 0.00501 µM (active)
Ki [17]: 0.00501 µM (active)
SMILES: O=c1[nH]c2cnc(-n3cnc4ccc(F)cc43)nc2n1C1CCOc2c(F)cccc21 (configuration not stated)

From ChEMBL document CHEMBL1201862, “PubChem BioAssay data set” (2004)
